Measured values as given in patent US6967196B1, “Sulfonamide compounds and uses thereof” (Bristol-Myers Squibb Company, priority 1999, dated 2005).
Read-outs that look alike come from different tables or passages of the source.

System: amyloid β production in transfected H4 (human neuroglioma) cells stably expressing APP constructs
Assay: In vitro cell-based assay of inhibitors of amyloid β production (ELISA)
Conditions: transfected H4 cells stably expressing APP, amyloid β in medium by ELISA, read-out: ACTIVITY (IC50, inhibition of amyloid β production)
Method: In Vitro Cell-Based Assay of Inhibitors of Amyloid β Production
Transfected H4 (human neuroglioma) cells stably expressing APP constructs are used to identify and assess inhibitors of Aβ production. In brief, cells lines are exposed to compounds, and the effect of each compound on amyloid β production is determined by measuring the amount of amyloid β produced using an enzyme linked immunosorbent assay (ELISA) that detects amyloid β (see, for example, Seubert et al., (1992) Nature, 359:325-327).
Transfected cells that stably express wild-type and variant forms of APP are plated in 96-well format plates at a density sufficient for the rapid detection of the secreted amyloid β (experimentally predetermined for a particular stable cell population). Cells are plated at least six hours prior to the introduction of the test compound at which time the growth medium is replaced by fresh medium containing the compound to be tested. All synthetic agents are initially screened at doses ranging from 10-100 μM. Higher dilutions of agents can be used to minimize cytotoxicity. Incubation of cells with a test compound continues for approximately 16 hours at which time aliquots of medium from each well are removed and assayed for amyloid β.
ELISA is carried out by methods known in the art (see, e.g., Haass et al., Antibodies: A Laboratory Manual, Harlow and lane, Editors, Cold Spring Harbor Press, 1988) The capture antibody is typically a mouse monoclonal (IgG1/kβ-APPa) which recognizes the carboxyl terminal epitope of amyloid β. The specificity of the capture antibody insures measurement of amyloid β without interference from other secreted APP fragments that share amino acid sequence (amyloid β 1-16) homology with amyloid β but lack the carboxy-terminal region. The detecting antibody is typically an affinity-purified rabbit polyclonal antibody that is specific for the amino terminus of amyloid β.
Results from test compounds are compared to results obtained when cells are treated with control agents. Amyloid β levels are determined by comparison to a standard curve obtained by subjecting a range of known amounts of amyloid β to the ELISA.
A compound is identified as “active” when it inhibits cellular production of amyloid β relative to levels in control samples by at least 50% at the initial tested concentration without significant cytotoxicity. Active compounds are then assayed in dose-response experiments to determine the lowest dose of compound necessary for inhibition of amyloid β production.

[1] = approximately 16 hours incubation

| Substance | IC50 [1] [nM] | IC50 (approx. 16 h incubation) [nM] | also measured |
| --- | --- | --- | --- |
| 1-{3-[2-({[(4-chlorophenyl)sulfonyl]-2,5-difluoroanilino}methyl)phenoxy]propyl}-1-methylpiperidinium iodide [Example 1037] | > 500 | – | – |
| 2,2,2-trichloro-N-{2-[2-(1-{[(4-chlorophenyl)sulfonyl]-2,5-difluoroanilino}ethyl)phenoxy]ethyl}-N-ethylacetamide [Example 744] | – | 100 to 500 | – |
| 2,2,2-trichloro-N-{3-[2-({[(4-chlorophenyl)sulfonyl]-2,5-difluoroanilino}ethyl)phenoxy]propyl(methyl)carbamate [Example 876] | 100 to 500 | – | – |
| 2,2,2-trichloro-N-{3-[2-({[(4-chlorophenyl)sulfonyl]-2,5-difluoroanilino}methyl)phenoxy]propyl}-N-methylacetamide [Example 853] | 100 to 500 | – | – |
| 2,4,6-trichloro-N-{3-[2-(1-{[(4-chlorophenyl)sulfonyl]-2,5-difluoroanilino}ethyl)phenoxy]propyl}-N-methylbenzamide [Example 713] | – | 100 to 500 | – |
| 2,4,6-trichloro-N-{3-[2-(1-{[(4-chlorophenyl)sulfonyl]-2,5-difluoroanilino}ethyl)phenoxy]propyl}benzamide [Example 728] | – | 100 to 500 | – |
| 2,4-dichloro-N-{3-[2-(1-{[(4-chlorophenyl)sulfonyl]-2,5-difluoroanilino}ethyl)phenoxy]propyl}-5-fluoro-N-methylbenzamide [Example 750] | – | 100 to 500 | – |
| 2,4-dichloro-N-{3-[2-(1-{[(4-chlorophenyl)sulfonyl]-2,5-difluoroanilino}ethyl)phenoxy]propyl}-5-fluorobenzamide [Example 682] | – | 100 to 500 | – |
| 2,4-dichloro-N-{3-[2-(1-{[(4-chlorophenyl)sulfonyl]-2,5-difluoroanilino}ethyl)phenoxy]propyl}-N-methylbenzamide [Example 839] | 100 to 500 | – | – |
| 2,4-dichloro-N-{3-[2-(1-{[(4-chlorophenyl)sulfonyl]-2,5-difluoroanilino}ethyl)phenoxy]propyl}-N-methylbenzenesulfonamide [Example 647] | – | 100 to 500 | – |
| 2,4-dichloro-N-{3-[2-({[(4-chlorophenyl)sulfonyl]-2,5-difluoroanilino}methyl)phenoxy]propyl}-5-fluoro-N-methylbenzamide [Example 896] | > 500 | – | – |
| 2-((1R)-1-{[(4-chlorophenyl)-sulfonyl]-2,5-difluoroanilino}ethyl)benzyl benzyl(methyl)carbamate [Example 715] | – | 100 to 500 | – |
| 2-((1R)-1-{[(4-chlorophenyl)sulfonyl]-2,5-difluoroanilino}ethyl)-5-fluorobenzyl 2-(1-pyrrolidinyl)ethylcarbamate [Example 914] | > 500 | – | – |
| 2-((1R)-1-{[(4-chlorophenyl)sulfonyl]-2,5-difluoroanilino}ethyl)-5-fluorobenzyl 2-methoxyethylcarbamate [Example 729] | – | 100 to 500 | – |
| 2-((1R)-1-{[(4-chlorophenyl)sulfonyl]-2,5-difluoroanilino}ethyl)-5-fluorobenzyl 2-phenylethylcarbamate [Example 640] | – | 100 to 500 | – |
| 2-((1R)-1-{[(4-chlorophenyl)sulfonyl]-2,5-difluoroanilino}ethyl)-5-fluorobenzyl 3-fluorobenzylcarbamate [Example 764] | – | 100 to 500 | – |
| 2-((1R)-1-{[(4-chlorophenyl)sulfonyl]-2,5-difluoroanilino}ethyl)-5-fluorobenzyl 4-(trifluoromethyl)benzylcarbamate [Example 658] | – | 100 to 500 | – |
| 2-((1R)-1-{[(4-chlorophenyl)sulfonyl]-2,5-difluoroanilino}ethyl)-5-fluorobenzyl bis(2-methoxyethyl)carbamate [Example 760] | – | 100 to 500 | – |
| 2-((1R)-1-{[(4-chlorophenyl)sulfonyl]-2,5-difluoroanilino}ethyl)-5-fluorobenzyl sec-butylcarbamate [Example 795] | – | 100 to 500 | – |

| Substance | IC50 [1] [nM] | IC50 (approx. 16 h incubation) [nM] | also measured |
| --- | --- | --- | --- |
| 2-((1R)-1-{[(4-chlorophenyl)sulfonyl]-2,5-difluoroanilino}ethyl)benzyl 1,2,3,4-tetrahydro-1-naphthalenylcarbamate [Example 660] | – | 100 to 500 | – |
| 2-((1R)-1-{[(4-chlorophenyl)sulfonyl]-2,5-difluoroanilino}ethyl)benzyl 1-piperidinecarboxylate [Example 284] | – | – | IC50 (approximately 16 hours incubation, Table B): 25 to 50 nM |
| 2-((1R)-1-{[(4-chlorophenyl)sulfonyl]-2,5-difluoroanilino}ethyl)benzyl 2,5-difluorobenzylcarbamate [Example 639] | – | 100 to 500 | – |
| 2-((1R)-1-{[(4-chlorophenyl)sulfonyl]-2,5-difluoroanilino}ethyl)benzyl 2-(4-chlorophenyl)ethylcarbamate [Example 731] | – | 100 to 500 | – |
| 2-((1R)-1-{[(4-chlorophenyl)sulfonyl]-2,5-difluoroanilino}ethyl)benzyl 2-(diethylamino)ethylcarbamate [Example 662] | – | 100 to 500 | – |
| 2-((1R)-1-{[(4-chlorophenyl)sulfonyl]-2,5-difluoroanilino}ethyl)benzyl 2-methoxyethylcarbamate [Example 669] | – | 100 to 500 | – |
| 2-((1R)-1-{[(4-chlorophenyl)sulfonyl]-2,5-difluoroanilino}ethyl)benzyl 2-phenylethylcarbamate [Example 743] | – | 100 to 500 | – |
| 2-((1R)-1-{[(4-chlorophenyl)sulfonyl]-2,5-difluoroanilino}ethyl)benzyl 2-phenylpropylcarbamate [Example 799] | – | 100 to 500 | – |
| 2-((1R)-1-{[(4-chlorophenyl)sulfonyl]-2,5-difluoroanilino}ethyl)benzyl 3,4-difluorobenzylcarbamate [Example 961] | > 500 | – | – |
| 2-((1R)-1-{[(4-chlorophenyl)sulfonyl]-2,5-difluoroanilino}ethyl)benzyl 3-fluorobenzylcarbamate [Example 910] | > 500 | – | – |
| 2-((1R)-1-{[(4-chlorophenyl)sulfonyl]-2,5-difluoroanilino}ethyl)benzyl 4-fluorobenzylcarbamate [Example 748] | – | 100 to 500 | – |
| 2-((1R)-1-{[(4-chlorophenyl)sulfonyl]-2,5-difluoroanilino}ethyl)benzyl (1S)-1-phenylethylcarbamate [Example 823] | 100 to 500 | – | – |
| 2-((1R)-1-{[(4-chlorophenyl)sulfonyl]-2,5-difluoroanilino}ethyl)benzyl benzyl[2-(dimethylamino)ethyl]carbamate [Example 838] | 100 to 500 | – | – |
| 2-((1R)-1-{[(4-chlorophenyl)sulfonyl]-2,5-difluoroanilino}ethyl)benzyl benzylcarbamate [Example 825] | 100 to 500 | – | – |
| 2-((1R)-1-{[(4-chlorophenyl)sulfonyl]-2,5-difluoroanilino}ethyl)benzyl butyl(methyl)carbamate [Example 720] | – | 100 to 500 | – |
| 2-((1R)-1-{[(4-chlorophenyl)sulfonyl]-2,5-difluoroanilino}ethyl)benzyl cyclohexylcarbamate [Example 675] | – | 100 to 500 | – |
| 2-((1R)-1-{[(4-chlorophenyl)sulfonyl]-2,5-difluoroanilino}ethyl)benzyl diethylcarbamate [Example 894] | > 500 | – | – |
| 2-((1R)-1-{[(4-chlorophenyl)sulfonyl]-2,5-difluoroanilino}ethyl)benzyl isopropylcarbamate [Example 674] | – | 100 to 500 | – |
